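A five-concentration, 48-hour dose response in 96-well plates underlies each endpoint, interpolated linearly between surrounding concentrations. At the GI50, growth is halved.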 Activity calls are given as the source filed them. Rule as the data show it: active = GI50 up to about 1.1 µM and inactive = higher.
How the values were obtained:
Test in all cases: growth of human tumour cells (NCI), 48 h
MDA-MB-231 = test system: MDA-MB-231
ACHN = test system: ACHN
Malme-3M = test system: Malme-3M
NCI-H226 = test system: NCI-H226
MCF7 = test system: MCF7
NCI-H522 = test system: NCI-H522
UACC-257 = test system: UACC-257
SF-539 = test system: SF-539
HOP-62 = test system: HOP-62
KM12 = test system: KM12
COLO 205 = test system: COLO 205
HOP-92 = test system: HOP-92
SK-MEL-5 = test system: SK-MEL-5
OVCAR-5 = test system: OVCAR-5
MOLT-4 = test system: MOLT-4
DU-145 = test system: DU-145
Hs-578T = test system: Hs-578T
OVCAR-4 = test system: OVCAR-4
MDA-N = test system: MDA-N
RXF 393 = test system: RXF 393

Compound | GI50 (MDA-MB-231) | GI50 (ACHN) | GI50 (Malme-3M) | GI50 (NCI-H226) | GI50 (MCF7) | GI50 (NCI-H522) | GI50 (UACC-257) | GI50 (SF-539) | GI50 (HOP-62) | GI50 (KM12) | GI50 (COLO 205) | GI50 (HOP-92) | GI50 (SK-MEL-5) | GI50 (OVCAR-5) | GI50 (MOLT-4) | GI50 (DU-145) | GI50 (Hs-578T) | GI50 (OVCAR-4) | GI50 (MDA-N) | GI50 (RXF 393)
Nc1nc(Nc2cc(F)c(Cl)c(F)c2)cc(=O)[nH]1 | 68.2 µM (inactive) | 84.7 µM (inactive) | > 100 µM (inactive) | > 100 µM (inactive) | 75.9 µM (inactive) | 28.4 µM (inactive) | > 100 µM (inactive) | > 100 µM (inactive) | > 100 µM (inactive) | 27 µM (inactive) | > 100 µM (inactive) | 77.3 µM (inactive) | 53.5 µM (inactive) | > 100 µM (inactive) | 55.6 µM (inactive) | > 100 µM (inactive) | 18.1 µM (inactive) | > 100 µM (inactive) |  | 
O=c1c2ccccc2nc(N/N=C/c2ccc(Cl)cc2)n1-c1ccccc1 | 93.3 µM (inactive) | > 100 µM (inactive) | > 100 µM (inactive) | > 100 µM (inactive) | > 100 µM (inactive) | 67 µM (inactive) | > 100 µM (inactive) | 97.3 µM (inactive) | 38.1 µM (inactive) |  | > 100 µM (inactive) | 98.6 µM (inactive) | > 100 µM (inactive) | > 100 µM (inactive) | > 100 µM (inactive) | > 100 µM (inactive) |  | 21.1 µM (inactive) | 50.8 µM (inactive) | 87.1 µM (inactive)
COc1cc2nc(-c3cccs3)nc(N3C(c4ccc(O)cc4)=NNC(=O)c4ccccc43)c2cc1OC | 18.9 µM (inactive) | 23.7 µM (inactive) | 21.1 µM (inactive) | 23.3 µM (inactive) | 36.7 µM (inactive) | 86.9 µM (inactive) | 28.4 µM (inactive) | < 0.01 µM (active) | 56.5 µM (inactive) | 32.7 µM (inactive) | 20.8 µM (inactive) |  | 46.8 µM (inactive) | 28.8 µM (inactive) |  | 4.54 µM (inactive) | 42.9 µM (inactive) | 28.8 µM (inactive) |  | 19.8 µM (inactive)
Cc1c(N2C(=O)C(Cl)C2c2ccc(Cl)cc2)c(=O)n(-c2ccccc2)n1C (stereo unspecified) | > 100 µM (inactive) | 23.7 µM (inactive) | > 100 µM (inactive) | > 100 µM (inactive) | 41.6 µM (inactive) | 46.3 µM (inactive) | 14.2 µM (inactive) | 36.1 µM (inactive) | 42 µM (inactive) | 27.7 µM (inactive) | > 100 µM (inactive) | 60.5 µM (inactive) | > 100 µM (inactive) | > 100 µM (inactive) | 31.4 µM (inactive) | > 100 µM (inactive) |  | > 100 µM (inactive) | 30 µM (inactive) | > 100 µM (inactive)
CC1CNC(NS(=O)(=O)c2cc(C(=O)Nc3ccc(Cl)cc3)c(Cl)cc2S)=NN1 (stereo unspecified) | 37.8 µM (inactive) | 40 µM (inactive) | 17.9 µM (inactive) | 27.5 µM (inactive) | 45 µM (inactive) | 28.2 µM (inactive) | 54.2 µM (inactive) | 30.8 µM (inactive) | 41.5 µM (inactive) | 28.1 µM (inactive) | 41.7 µM (inactive) |  | 14.1 µM (inactive) | 38.5 µM (inactive) | 52.8 µM (inactive) | 30.2 µM (inactive) |  | 28.6 µM (inactive) | 27.3 µM (inactive) | 
O=C(/N=N/c1ccccc1Br)NNc1ccccc1Br | 62.2 µM (inactive) | 46.1 µM (inactive) | 38.2 µM (inactive) | > 100 µM (inactive) |  | 40.6 µM (inactive) | > 100 µM (inactive) |  | > 100 µM (inactive) |  |  |  | 48.4 µM (inactive) | > 100 µM (inactive) | 25.6 µM (inactive) | > 100 µM (inactive) |  | 56.2 µM (inactive) | 55.8 µM (inactive) | 
N#C/C(=C\c1c(Cl)cccc1Cl)c1ccccc1 |  | 7.59 µM (inactive) | 10.2 µM (inactive) | > 22.9 µM (inactive) |  | 14.2 µM (inactive) | 8.65 µM (inactive) | 2.72 µM (inactive) | 3.83 µM (inactive) | 4.86 µM (inactive) | 2.4 µM (inactive) | 8.49 µM (inactive) | 5.51 µM (inactive) | > 77.4 µM (inactive) | 4.73 µM (inactive) |  |  | 20.1 µM (inactive) |  | 6.12 µM (inactive)
O=C(NC1(C(=O)NNc2nnc(-c3ccccc3)c(-c3ccccc3)n2)C(c2ccccc2)C(c2ccccc2)=NN1c1ccccc1)c1ccccc1 (stereo unspecified) | > 100 µM (inactive) | > 100 µM (inactive) | 64.1 µM (inactive) | > 100 µM (inactive) |  | > 100 µM (inactive) | > 100 µM (inactive) | > 100 µM (inactive) | > 100 µM (inactive) | > 100 µM (inactive) | > 100 µM (inactive) | 73.1 µM (inactive) | > 100 µM (inactive) | > 100 µM (inactive) | > 100 µM (inactive) | > 100 µM (inactive) | > 100 µM (inactive) | > 100 µM (inactive) |  | 22.6 µM (inactive)
CN(C)c1ccc(-c2c(C#N)c(S)n(NS(=O)(=O)c3ccccc3)c(=O)c2C#N)cc1 | 22.3 µM (inactive) | 26.8 µM (inactive) | 26.5 µM (inactive) |  | 24.2 µM (inactive) | 14.7 µM (inactive) | 45.8 µM (inactive) | 18.8 µM (inactive) |  | 16.2 µM (inactive) | 38.5 µM (inactive) | 25 µM (inactive) | 19.8 µM (inactive) | 55.6 µM (inactive) | 16.6 µM (inactive) | 63.5 µM (inactive) |  | 25.6 µM (inactive) | 25 µM (inactive) | 20.4 µM (inactive)
Nc1nc(N)nc(-c2cnccn2)n1 | 53 µM (inactive) | > 100 µM (inactive) | > 100 µM (inactive) | > 100 µM (inactive) | > 100 µM (inactive) | > 100 µM (inactive) | > 100 µM (inactive) | > 100 µM (inactive) | > 100 µM (inactive) | > 100 µM (inactive) | > 100 µM (inactive) | > 100 µM (inactive) |  | 57.1 µM (inactive) | > 100 µM (inactive) | > 100 µM (inactive) |  |  |  | > 100 µM (inactive)
O=C(O)c1cnc2[nH]ccn2c1=O | > 100 µM (inactive) | > 100 µM (inactive) | > 100 µM (inactive) | > 100 µM (inactive) | > 100 µM (inactive) |  | > 100 µM (inactive) |  | > 100 µM (inactive) |  | > 100 µM (inactive) | > 100 µM (inactive) | > 100 µM (inactive) | > 100 µM (inactive) | > 100 µM (inactive) | > 100 µM (inactive) |  | > 100 µM (inactive) | > 100 µM (inactive) | 
COc1ccc2nc(NC(=O)C(=O)C(C#N)c3ccc([N+](=O)[O-])cc3)sc2c1 (stereo unspecified) |  | > 100 µM (inactive) | > 100 µM (inactive) | > 100 µM (inactive) |  | 55.5 µM (inactive) | > 100 µM (inactive) | > 100 µM (inactive) | > 100 µM (inactive) | > 100 µM (inactive) | > 100 µM (inactive) | > 100 µM (inactive) | > 100 µM (inactive) | > 100 µM (inactive) | 38.3 µM (inactive) |  |  | > 100 µM (inactive) |  | > 100 µM (inactive)
c1ccc(NC2(c3nnnn3C3CCCCC3)CCNCC2)cc1 | 39.6 µM (inactive) | 20.1 µM (inactive) | 17.1 µM (inactive) | 17.9 µM (inactive) | 18.5 µM (inactive) |  | 15.7 µM (inactive) | 15.6 µM (inactive) | 15.9 µM (inactive) | 15.3 µM (inactive) | 19.8 µM (inactive) | 6.01 µM (inactive) | 19.5 µM (inactive) | 14.9 µM (inactive) | 18.2 µM (inactive) | 37 µM (inactive) | 14.1 µM (inactive) | 49.8 µM (inactive) |  | > 10 µM (inactive)
N=C(N)Nc1ccc(CC(N)C(=O)NCC(=O)C(CC(=O)O)c2ncc(NC(=O)C(F)(F)F)o2)cc1 (stereo unspecified) | > 25 µM (inactive) | > 25 µM (inactive) | > 25 µM (inactive) | > 25 µM (inactive) | 18.4 µM (inactive) | > 25 µM (inactive) | > 25 µM (inactive) | > 25 µM (inactive) | > 25 µM (inactive) | > 25 µM (inactive) | > 25 µM (inactive) |  | > 25 µM (inactive) | > 25 µM (inactive) |  | > 25 µM (inactive) | > 25 µM (inactive) | > 25 µM (inactive) |  | > 25 µM (inactive)
O=C1NC(c2ccc3ccccc3c2)Nc2ccccc21 (stereo unspecified) | > 100 µM (inactive) | 48.1 µM (inactive) |  | 32.1 µM (inactive) | 46.1 µM (inactive) |  | 57.9 µM (inactive) | 20.7 µM (inactive) | 41 µM (inactive) | 21.1 µM (inactive) | 26.3 µM (inactive) | 36.7 µM (inactive) | 20 µM (inactive) |  |  | 49.5 µM (inactive) | 57.4 µM (inactive) | 58.5 µM (inactive) |  | 51.9 µM (inactive)
CC[C@@]1(O)C(=O)OCc2c1cc1n(c2=O)Cc2cc3cc4c(cc3nc2-1)OCO4 | 0.357 µM (active) | < 0.001 µM (active) | 0.00497 µM (active) | 0.00168 µM (active) | 0.01 µM (active) | 0.00133 µM (active) | 0.054 µM (active) | < 0.001 µM (active) | < 0.001 µM (active) |  | 0.0439 µM (active) | 0.0026 µM (active) | 0.00169 µM (active) | 0.0111 µM (active) | < 0.001 µM (active) | < 0.001 µM (active) | 0.244 µM (active) | 0.0507 µM (active) |  | 0.00221 µM (active)
